Converted amounts (≈) assume the structure as drawn. “And” between values parts separate entries of the source, which are not always exact repeats. Identical values can stand only once. Like-named read-outs stand apart in the source and are kept apart here.
How the values were obtained:
[1] = test system: SARS-CoV-2 USA_WAI/2020 isolate; details: cited from earlier work; for plasma EC90Adjusted concentration: adjusted for plasma protein binding
[2] = parameters: method as in earlier work; details: cited from earlier work
[3] = test system: Human brain primary astrocytes; assay: In-vitro drug uptake by human brain primary astrocytes
[4] = rats
[5] = cited from earlier work
[6] = test system: SARS-CoV-2 USA_WAI/2020 isolate
Description: Therefore, the goal for the CSF was set to achieve the same exposure conditions as for plasma.

[7] = cited from earlier work; remark: listed apart in the source
[8] = cited from earlier work; remark: listed apart in the source
[9] = test system: human neurons; assay: In-vitro drug uptake by human neurons; details: for uptake of NMR by neurons (mean ± SD): 24-h incubation
[10] = in vivo; details: male, Sprague-Dawley, rat; for Tmax: Average Tmax
[11] = in vivo; details: male, Sprague-Dawley, rat, Median (IQR), rats
[12] = cited from earlier work; remark: listed apart in the source
[13] = test system: pericytes; assay: In-vitro drug uptake by human brain pericytes
[14] = test system: human neurons
[15] = test system: pericytes; details: human, 24 h, 1000 ng/mL
[16] = in the presence or absence of RTV
[17] = rats, oral 30 mg/kg NMR + 10 mg/kg RTV twice daily, 5 days
[18] = rats, oral NMR/RTV twice daily, 5 days
[19] = RTV alone, 1000 ng/mL, 24-h incubation

Q: With CC(C)(C)[C@H](NC(=O)C(F)(F)F)C(=O)N1C[C@H]2[C@@H]([C@H]1C(=O)N[C@H](C#N)C[C@@H]1CCNC1=O)C2(C)C [NMR, nirmatrelvir] as the compound, how does the “plasma EC90Adjusted concentration” value ([1]; bronchial epithelial cells infected with USA_WAI/2020 isolate) read?
A: 0.292 µg/mL

Q: And the “plasma EC90Adjusted concentration” value [1]?
A: 585 nM

Q: And the EC90Un_adjusted ([1]; unadjusted for protein binding)?
A: 0.0905 µg/mL (≈ 0.181 µM)

Q: And the “EC90Un_adjusted for CSF” value ([1]; unadjusted for protein binding)?
A: 0.0905 µg/mL

Q: And the protein bound [2]?
A: 69%

Q: And the “difference in NMR uptake, NMR alone or with RTV” value ([3]; astrocytes)?
A: No significant differences

Q: And the “uptake of NMR by astrocytes” value [3, 16]?
A: < 2%

Q: And the “Brain NMR concentration, Median (IQR)” value [4]?
A: 23.83 (10.94-46.85) ng/g

Q: And the “Heart NMR concentration, Median (IQR)” value [4]?
A: 61.72 (24.44-111.5) ng/g

Q: And the “Kidney NMR concentration, Median (IQR)” value [4]?
A: 97.84 (43.28-297.3) ng/g

Q: What about the “Liver NMR concentration, Median (IQR)” value [4] of the same compound?
A: 110 (35.65-419.5) ng/g

Q: What about the “Lung NMR concentration, Median (IQR)” value [4] of the same compound?
A: 67.86 (25.01-111.3) ng/g

Q: And the “PBMC NMR concentration, Median (IQR)” value [4]?
A: 61.44 (31.7-345.2) ng/mL

Q: And the “brain NMR concentrations compared to 3xEC90” value ([4]; adjusted or unadjusted for protein binding)?
A: all < 3xEC90 regardless of adjustment for protein binding

Q: What about the “lipophilicity coefficient (LogP)” value [5] of the same compound?
A: 1.68

Q: What about the “3xEC90 PD value for CSF” value [6] of the same compound?
A: 271.5 ng/mL

Q: What about the “3xEC90 PD value for plasma and tissue” value [6] of the same compound?
A: 876 ng/mL

Q: What about the “3xEC90 plasma protein adjusted in plasma” value [6] of the same compound?
A: 0.876 mg/L

Q: And the “3xEC90 unadjusted in CSF” value [6]?
A: 0.2715 mg/L

Q: What about the “passive apparent permeability (Papp)” value [7] of the same compound?
A: 1.76 ×10⁻⁶ cm/s

Q: What about the “NMR half-life in other oral rat PK studies” value ([8]; 10 mg/kg oral, rat) of the same compound?
A: 4 h

Q: What about the “F literature values estimated in rats for NMR” value [8] of the same compound?
A: 34–50%

Q: What about the “Tmax in other rodent models, mean” value [8] of the same compound?
A: 1.5 h

Q: And the “Cmax_0-5 days Plasma, Median (IQR)” value (all rats)?
A: 2240 (1860–4030) ng/mL

Q: And the “%CSF Concentrations ≥ 3xEC90Un_adjusted, Median (IQR)” value (all rats with CSF, 3xEC90 271.5 ng/mL unadjusted for protein binding)?
A: 16 (0 -20.5) % and 16%

Q: What about the “Cmax_0-5 days Plasma, Geometric mean (Geometric SD factor)” value (excluding rat 7, calculated to compare to clinical data) of the same compound?
A: 2480 ng/mL

Q: What about the “CSF Cmax, median” value (rats) of the same compound?
A: 410 ng/mL

Q: And the “% Penetration by Cmax CSF/Plasma, Median (IQR)” value (rats with CSF sampled)?
A: 18.11%

Q: What about the “Cmax_0-5 days CSF, Median (IQR)” value (rats with CSF sampled) of the same compound?
A: 410 (200–880) ng/mL

Q: What about the “CL (NMR clearance), median from final model” value [17] of the same compound?
A: 0.23 L/h

Q: What about the “Ka, median from final model” value [17] of the same compound?
A: 0.51 h⁻¹

Q: What about the “K23 (rate constant to CSF from central compartment), median” value [18] of the same compound?
A: 0.05 h⁻¹

Q: What about the “Vc (volume central compartment), median” value [18] of the same compound?
A: 1.05 L

Q: What about the “Vcsf (volume cerebrospinal fluid compartment), median” value [18] of the same compound?
A: 3.46 L

Q: And the “uptake of NMR by neurons (mean ± SD)” value ([9]; NMR alone, 2200 ng/mL)?
A: 34.7 ng/mL

Q: What about the “uptake of NMR by neurons (mean ± SD)” value ([9]; in the presence of RTV (1000 ng/mL), NMR 2200 ng/mL) of the same compound?
A: 122.8 ± 7.8 ng/mL

Q: And the “maximum NMR uptake (uptake/administered)” value ([9]; neurons in the presence of RTV, 2200 ng/mL administered)?
A: 5.5%

Q: And the Cmax [10]?
A: 2480 ng/mL

Q: And the Kp ([10]; % Penetration by AUC CSF/Plasma, Median (IQR), rats with CSF sampled)?
A: 0.152

Q: And the Kp ([10]; % Penetration by Cmax CSF/Plasma, Median (IQR), rats with CSF sampled)?
A: 0.181

Q: And the k el ([10]; po, 30 mg/kg)?
A: 6.67e-05 s⁻¹

Q: What about the AUC ([10]; po, 30 mg/kg, AUC0-endoftreatment CSF, Median (IQR), rats with CSF sampled) of the same compound?
A: 17600 ng·h/mL

Q: And the AUC ([10]; po, 30 mg/kg, AUC0-endoftreatment Plasma, Median (IQR), all rats)?
A: 114000 ng·h/mL

Q: What about the AUC ([10]; po, 30 mg/kg, AUC0-endoftreatment Plasma, Median (IQR), excluding rat 7) of the same compound?
A: 128000 ng·h/mL

Q: And the AUC ([10]; po, 30 mg/kg, AUCdaily_average CSF, Median (IQR), rats with CSF sampled)?
A: 3520 ng·h/mL

Q: What about the AUC ([10]; po, 30 mg/kg, AUCdaily_average Plasma, Geometric mean (Geometric SD factor), excluding rat 7, calculated to compare to clinical data) of the same compound?
A: 20200 ng·h/mL

Q: And the AUC ([10]; po, 30 mg/kg, AUCdaily_average Plasma, Median (IQR), all rats)?
A: 22800 ng·h/mL

Q: What about the AUC ([10]; po, 30 mg/kg, AUCdaily_average Plasma, Median (IQR), excluding rat 7) of the same compound?
A: 25600 ng·h/mL

Q: And the Tmax ([10]; po, 30 mg/kg, Mean (SD), all rats, calculated to compare to literature values)?
A: 1.84 h

Q: What about the Tmax ([10]; po, 30 mg/kg, Median (IQR), all rats) of the same compound?
A: 1.68 h

Q: And the half-life ([10]; po, 30 mg/kg, Half-life, Median (IQR), all rats, NMR in the presence of RTV)?
A: 2.55 h

Q: What about the Kp ([10]; po, NMR CSF concentrations as % of those in plasma, ratio of Cmax or AUC, oral NMR/RTV twice daily for five days) of the same compound?
A: 0.15 to 0.18

Q: And the Kp ([11]; AR Brain)?
A: 0.15

Q: What about the Kp ([11]; AR Kidney) of the same compound?
A: 1.71

Q: What about the Kp ([11]; AR Liver) of the same compound?
A: 2.71

Q: What about the Kp ([11]; AR Lung) of the same compound?
A: 0.89

Q: What about the Kp ([11]; AR PBMC) of the same compound?
A: 0.998

Q: What about the “participants with NMR trough concentrations ≥ 3 × EC90” value ([12]; EPIC-HR, FDA review) of the same compound?
A: 95%

Q: And the “NMR Ka reported by others” value [12]?
A: 0.55 h⁻¹

Q: What about the “half-life for NMR in the presence of RTV in humans” value [12] of the same compound?
A: 6.05 h

Q: What about the “healthy human geometric mean AUC0-12 h” value ([12]; healthy volunteers) of the same compound?
A: 23010 ng·h/mL

Q: And the “healthy human geometric mean Cmax” value ([12]; healthy volunteers)?
A: 2210 ng/mL

Q: What about the “uptake of NMR by pericytes” value [13, 16] of the same compound?
A: < 2%

Q: What about the “difference in NMR uptake, NMR alone or with RTV” value ([13]; pericytes) of the same compound?
A: No significant differences

Q: Which results are given for CC(C)c1nc(CN(C)C(=O)N[C@H](C(=O)N[C@@H](Cc2ccccc2)C[C@H](O)[C@H](Cc2ccccc2)NC(=O)OCc2cncs2)C(C)C)cs1 [RTV, ritonavir]?
A: neuronal entry of RTV [14]: moderate; RTV uptake in astrocytes (mean ± SD) [3, 19]: 419.7 ng/mL; uptake of RTV by pericytes (uptake/administered) [15]: 20.2%; RTV uptake in pericytes (mean ± SD) [13, 19]: 202.6 ng/mL

Source: PMC11087525 (Scientific Reports, 2024)
